Measurements: article PMC5218480 (PLoS ONE, 2017)

Tested on: MV-4-11 cells
Test: Gene expression microarray analysis (Affymetrix PrimeView) and GSEA
Assay type: cell-based, human
Design: RFU PODN (11730768_x_at) / Fold change /veh PODN (11730768_x_at) / RFU LINC00158 (11744669_a_at) / Fold change /veh LINC00158 (11744669_a_at) / RFU DUSP10 (11751237_a_at) / Fold change /veh DUSP10 (11751237_a_at) / RFU ID3 (11757404_x_at) / Fold change /veh ID3 (11757404_x_at) / RFU PLEKHG5 (11737974_s_at) / Fold change /veh PLEKHG5 (11737974_s_at) / RFU LRRC4B (11730491_at) / Fold change /veh LRRC4B (11730491_at) / RFU GIMAP4 (11747438_a_at) / Fold change /veh GIMAP4 (11747438_a_at) / RFU KRT8 (11758183_x_at) / Fold change /veh KRT8 (11758183_x_at) / RFU CNN1 (11734310_a_at) / Fold change /veh CNN1 (11734310_a_at) / RFU VPS37D (11726825_at) / Fold change /veh VPS37D (11726825_at) / RFU C10orf10 (11716522_x_at) / Fold change /veh C10orf10 (11716522_x_at) / RFU KIR2DL2 /// KIR2DL4 /// KIR2DL5A /// KIR2DL5B /// KIR2DS1 /// KIR2DS2 /// KIR2DS3 /// KIR2DS4 /// KIR3DL3 /// KIR3DL3 /// KIR3DS1 (11738374_at) / Fold change /veh KIR2DL2 /// KIR2DL4 /// KIR2DL5A /// KIR2DL5B /// KIR2DS1 /// KIR2DS2 /// KIR2DS3 /// KIR2DS4 /// KIR3DL3 /// KIR3DL3 /// KIR3DS1 (11738374_at) / RFU C1QL1 (11718748_at) / Fold change /veh C1QL1 (11718748_at) / RFU TMPRSS4 (11747572_a_at) / Fold change /veh TMPRSS4 (11747572_a_at) / RFU HAMP (11756126_x_at) / Fold change /veh HAMP (11756126_x_at) / RFU RNFT2 (11725882_a_at) / Fold change /veh RNFT2 (11725882_a_at) / RFU NR4A2 (11747474_a_at) / Fold change /veh NR4A2 (11747474_a_at) / RFU ABCC12 (11746883_a_at) / Fold change /veh ABCC12 (11746883_a_at) / RFU TMEM136 (11760407_x_at) / Fold change /veh TMEM136 (11760407_x_at) / RFU CLDN22 /// WWC2 (11732394_at) / Fold change /veh CLDN22 /// WWC2 (11732394_at) / RFU HLA-DPB1 (11760878_x_at) / Fold change /veh HLA-DPB1 (11760878_x_at) / RFU SPINT1 (11716480_a_at) / Fold change /veh SPINT1 (11716480_a_at) / RFU GAP43 (11754022_s_at) / Fold change /veh GAP43 (11754022_s_at) / RFU A4GNT (11735810_at) / Fold change /veh A4GNT (11735810_at) / RFU PRB3 (11715151_x_at) / Fold change /veh PRB3 (11715151_x_at) / RFU TUBB4B (11761932_at) / Fold change /veh TUBB4B (11761932_at) / RFU CAPN14 (11732068_a_at) / Fold change /veh CAPN14 (11732068_a_at) / RFU TMCC2 (11721928_a_at) / Fold change /veh TMCC2 (11721928_a_at) / RFU IRGQ (11745062_a_at) / Fold change /veh IRGQ (11745062_a_at) / RFU FAM174B (11720279_a_at) / Fold change /veh FAM174B (11720279_a_at) / RFU TMPRSS4 (11748680_a_at) / Fold change /veh TMPRSS4 (11748680_a_at) / RFU FAM212B (11763350_a_at) / Fold change /veh FAM212B (11763350_a_at) / RFU PLEKHG5 (11743358_a_at) / Fold change /veh PLEKHG5 (11743358_a_at) / RFU ZSCAN30 (11745921_a_at) / Fold change /veh ZSCAN30 (11745921_a_at) / RFU CMKLR1 (11741424_a_at) / Fold change /veh CMKLR1 (11741424_a_at) / RFU LOC101060620 /// MAPK8IP1 (11723275_at) / Fold change /veh LOC101060620 /// MAPK8IP1 (11723275_at) / RFU SPTSSB (11747773_x_at) / Fold change /veh SPTSSB (11747773_x_at) / RFU PRSS12 (11739890_at) / Fold change /veh PRSS12 (11739890_at) / RFU BIN1 (11741810_x_at) / Fold change /veh BIN1 (11741810_x_at) / RFU WNT11 (11732464_a_at) / Fold change /veh WNT11 (11732464_a_at) / RFU C10orf10 (11716521_a_at) / Fold change /veh C10orf10 (11716521_a_at) / RFU C5orf56 (11738089_at) / Fold change /veh C5orf56 (11738089_at) / RFU CYB561 (11721691_x_at) / Fold change /veh CYB561 (11721691_x_at) / RFU ANKRD19P (11752326_a_at) / Fold change /veh ANKRD19P (11752326_a_at) / RFU OR2T12 /// OR2T33 /// OR2T8 (11738714_s_at) / Fold change /veh OR2T12 /// OR2T33 /// OR2T8 (11738714_s_at) / RFU VCAN (11748164_a_at) / Fold change /veh VCAN (11748164_a_at) / RFU JSRP1 (11732532_at) / Fold change /veh JSRP1 (11732532_at) / RFU KRTAP10-11 (11738290_x_at) / Fold change /veh KRTAP10-11 (11738290_x_at) / RFU MYO3A (11730013_a_at) / Fold change /veh MYO3A (11730013_a_at) / RFU EBF3 (11725865_a_at) / Fold change /veh EBF3 (11725865_a_at) / RFU CAMK2N1 (11719241_x_at) / Fold change /veh CAMK2N1 (11719241_x_at) / RFU C5orf56 (11738088_a_at) / Fold change /veh C5orf56 (11738088_a_at) / RFU OLFML3 (11715873_a_at) / Fold change /veh OLFML3 (11715873_a_at) / RFU LOC100653217 /// NTM (11731650_a_at) / Fold change /veh LOC100653217 /// NTM (11731650_a_at) / RFU MAPK11 (11762145_a_at) / Fold change /veh MAPK11 (11762145_a_at) / RFU FIZ1 (11724087_x_at) / Fold change /veh FIZ1 (11724087_x_at) / RFU OASL (11726364_x_at) / Fold change /veh OASL (11726364_x_at) / RFU SOX15 (11748057_x_at) / Fold change /veh SOX15 (11748057_x_at) / RFU CD79A (11719716_a_at) / Fold change /veh CD79A (11719716_a_at) / RFU HIST1H1D (11736915_at) / Fold change /veh HIST1H1D (11736915_at) / RFU CASKIN2 (11723855_a_at) / Fold change /veh CASKIN2 (11723855_a_at) / RFU LOC730098 (11760151_x_at) / Fold change /veh LOC730098 (11760151_x_at) / RFU OR4N2 (11742367_at) / Fold change /veh OR4N2 (11742367_at) / RFU PRRT2 (11749266_a_at) / Fold change /veh PRRT2 (11749266_a_at) / RFU SNX32 (11753110_a_at) / Fold change /veh SNX32 (11753110_a_at) / RFU CDHR5 (11726645_a_at) / Fold change /veh CDHR5 (11726645_a_at) / RFU RCAN1 (11760418_a_at) / Fold change /veh RCAN1 (11760418_a_at) / RFU FAM167A (11723789_a_at) / Fold change /veh FAM167A (11723789_a_at) / RFU FAM26E (11764081_at) / Fold change /veh FAM26E (11764081_at) / RFU ISYNA1 (11749810_s_at) / Fold change /veh ISYNA1 (11749810_s_at) / RFU ACY1 (11761880_at) / Fold change /veh ACY1 (11761880_at) / RFU 11764098_at / Fold change /veh 11764098_at / RFU SAMD14 (11745864_x_at) / Fold change /veh SAMD14 (11745864_x_at) / RFU NPB (11741838_a_at) / Fold change /veh NPB (11741838_a_at) / RFU TMPRSS6 (11731388_a_at) / Fold change /veh TMPRSS6 (11731388_a_at) / RFU KRTAP10-2 (11738614_at) / Fold change /veh KRTAP10-2 (11738614_at) / RFU ARHGAP8 /// PRR5-ARHGAP8 (11727945_x_at) / Fold change /veh ARHGAP8 /// PRR5-ARHGAP8 (11727945_x_at) / RFU KRTAP5-7 /// NADSYN1 (11734609_at) / Fold change /veh KRTAP5-7 /// NADSYN1 (11734609_at) / RFU RASL12 (11751679_a_at) / Fold change /veh RASL12 (11751679_a_at) / RFU CDKN2B (11736163_a_at) / Fold change /veh CDKN2B (11736163_a_at) / RFU PRF1 (11729649_at) / Fold change /veh PRF1 (11729649_at) / RFU, ZNF638 /// ZNF638-IT1 / Fold change vs veh, ZNF638 /// ZNF638-IT1 / RFU, PANK3 / Fold change vs veh, PANK3 / RFU, SH3YL1 / Fold change vs veh, SH3YL1 / RFU, ZEB2 / Fold change vs veh, ZEB2 / RFU, NRIP1 / Fold change vs veh, NRIP1 / RFU, PTTG1IP / Fold change vs veh, PTTG1IP / RFU, CAPN2 / Fold change vs veh, CAPN2 / RFU, MED14 / Fold change vs veh, MED14 / RFU, SNORA58 / Fold change vs veh, SNORA58 / RFU, C1orf63 / Fold change vs veh, C1orf63 / RFU, LRRFIP1 / Fold change vs veh, LRRFIP1 / RFU, NDUFAF7 / Fold change vs veh, NDUFAF7 / RFU, SLC12A2 / Fold change vs veh, SLC12A2 / RFU, IBTK / Fold change vs veh, IBTK / RFU, ESF1 / Fold change vs veh, ESF1 / Fold change vs veh, TMEM50B / RFU, TAOK1 / Fold change vs veh, TAOK1 / RFU, ACBD3 / Fold change vs veh, ACBD3 / RFU, TMA16 / Fold change vs veh, TMA16 / RFU, RWDD3 / Fold change vs veh, RWDD3 / RFU, BCAT1 / Fold change vs veh, BCAT1 / RFU, EDEM3 / Fold change vs veh, EDEM3 / RFU, TMEM33 / Fold change vs veh, TMEM33 / RFU, WDR75 / Fold change vs veh, WDR75 / RFU, AHCTF1 / Fold change vs veh, AHCTF1 / RFU, TFRC / Fold change vs veh, TFRC / RFU, ZDHHC17 / Fold change vs veh, ZDHHC17 / RFU, NOM1 / Fold change vs veh, NOM1 / RFU, ARL8B / Fold change vs veh, ARL8B / RFU, ZBTB11 / Fold change vs veh, ZBTB11 / RFU, TAMM41 / Fold change vs veh, TAMM41 / RFU, KIAA1704 /// LOC100996395 / Fold change vs veh, KIAA1704 /// LOC100996395 / RFU, ING1 / Fold change vs veh, ING1 / RFU, TRMT61B / Fold change vs veh, TRMT61B / RFU, FUBP3 / Fold change vs veh, FUBP3 / RFU, TP53 / Fold change vs veh, TP53 / RFU, TNKS2 / Fold change vs veh, TNKS2 / RFU, ZFP14 / Fold change vs veh, ZFP14 / RFU, ACTR2 / Fold change vs veh, ACTR2 / RFU, PPP3R1 / Fold change vs veh, PPP3R1 / RFU, PIK3R1 / Fold change vs veh, PIK3R1 / RFU, HNRNPA1 / Fold change vs veh, HNRNPA1 / RFU, RNF170 / Fold change vs veh, RNF170 / RFU, ZNF28 / Fold change vs veh, ZNF28 / RFU, RNGTT / Fold change vs veh, RNGTT / RFU, OGT / Fold change vs veh, OGT / RFU, BRD1 / Fold change vs veh, BRD1 / RFU, MARS / Fold change vs veh, MARS / RFU, ZNF655 / Fold change vs veh, ZNF655 / RFU, FAHD1 / Fold change vs veh, FAHD1 / RFU, BDP1 / Fold change vs veh, BDP1 / RFU, LRRCC1 / Fold change vs veh, LRRCC1 / RFU, ARID1A / Fold change vs veh, ARID1A / RFU, ZNF146 / Fold change vs veh, ZNF146 / RFU, ZNF330 / Fold change vs veh, ZNF330 / RFU, GPN3 / Fold change vs veh, GPN3 / RFU, C9orf123 / Fold change vs veh, C9orf123 / RFU, N4BP2L2 / Fold change vs veh, N4BP2L2 / RFU, ARFIP1 / Fold change vs veh, ARFIP1 / RFU, FAM179B / Fold change vs veh, FAM179B / RFU, BCL10 / Fold change vs veh, BCL10 / RFU, UHRF1BP1L / Fold change vs veh, UHRF1BP1L / RFU, BET1 / Fold change vs veh, BET1 / RFU, CNOT2 / Fold change vs veh, CNOT2 / RFU, ZNF268 / Fold change vs veh, ZNF268 / Fold change vs veh, ZNF507 / RFU, DGCR2 / Fold change vs veh, DGCR2 / RFU, WDSUB1 / Fold change vs veh, WDSUB1 / Fold change vs veh, HSP90B1 /// MIR3652 / RFU, ADSS / Fold change vs veh, ADSS / RFU, GK / Fold change vs veh, GK / RFU, ZNF148 / Fold change vs veh, ZNF148 / RFU, TAF9 / Fold change vs veh, TAF9 / RFU, SLC1A5 / Fold change vs veh, SLC1A5 / RFU, SLMO2 / Fold change vs veh, SLMO2 / RFU, ABCC4 / Fold change vs veh, ABCC4 / RFU, LOC101060439 /// RAP1B / Fold change vs veh, LOC101060439 /// RAP1B / RFU, RFX7 / Fold change vs veh, RFX7 / RFU, GTPBP10 / Fold change vs veh, GTPBP10 / RFU, CNEP1R1 / Fold change vs veh, CNEP1R1 / RFU, BIVM-ERCC5 /// ERCC5 / Fold change vs veh, BIVM-ERCC5 /// ERCC5 / RFU, ILF3 / Fold change vs veh, ILF3 / RFU 11762660_at / Fold change /veh 11762660_at / RFU VCAN (11757783_s_at) / Fold change /veh VCAN (11757783_s_at) / RFU DDX43 (11728927_at) / Fold change /veh DDX43 (11728927_at) / RFU KRT8 (11758188_x_at) / Fold change /veh KRT8 (11758188_x_at) / RFU NKD1 (11759106_at) / Fold change /veh NKD1 (11759106_at) / RFU SRD5A1 (11742802_a_at) / Fold change /veh SRD5A1 (11742802_a_at) / RFU TPSAB1 /// TPSB2 (11721975_s_at) / Fold change /veh TPSAB1 /// TPSB2 (11721975_s_at) / RFU GSTM3 (11746129_a_at) / Fold change /veh GSTM3 (11746129_a_at) / RFU IL23R (11737362_x_at) / Fold change /veh IL23R (11737362_x_at) / RFU TMEM51 (11727254_a_at) / Fold change /veh TMEM51 (11727254_a_at) / RFU PIWIL2 (11732686_x_at) / Fold change /veh PIWIL2 (11732686_x_at) / RFU ORM1 (11744905_x_at) / Fold change /veh ORM1 (11744905_x_at) / RFU CCDC152 (11743942_at) / Fold change /veh CCDC152 (11743942_at) / RFU ECM1 (11717891_a_at) / Fold change /veh ECM1 (11717891_a_at) / RFU IL23R (11748794_a_at) / Fold change /veh IL23R (11748794_a_at) / RFU TNFAIP8L3 (11732012_x_at) / Fold change /veh TNFAIP8L3 (11732012_x_at) / RFU MBOAT4 (11741988_at) / Fold change /veh MBOAT4 (11741988_at) / RFU 11764193_at / Fold change /veh 11764193_at / RFU TMEM53 (11763286_at) / Fold change /veh TMEM53 (11763286_at) / RFU MAGEB2 (11727129_at) / Fold change /veh MAGEB2 (11727129_at) / RFU TMEM200A (11744735_a_at) / Fold change /veh TMEM200A (11744735_a_at) / RFU CCDC152 (11751479_a_at) / Fold change /veh CCDC152 (11751479_a_at) / RFU FAM211A (11726209_a_at) / Fold change /veh FAM211A (11726209_a_at) / RFU RGS16 (11746705_a_at) / Fold change /veh RGS16 (11746705_a_at) / RFU VCAN (11755009_s_at) / Fold change /veh VCAN (11755009_s_at) / RFU RHOB (11743442_s_at) / Fold change /veh RHOB (11743442_s_at) / RFU RGS16 (11720943_a_at) / Fold change /veh RGS16 (11720943_a_at) / RFU RGS16 (11720944_at) / Fold change /veh RGS16 (11720944_at) / RFU, VPS4B / Fold change vs veh, VPS4B / RFU, CREB1 / Fold change vs veh, CREB1 / RFU, DNAJC13 / Fold change vs veh, DNAJC13 / RFU, GNAQ / Fold change vs veh, GNAQ / RFU, CDK5R1 / Fold change vs veh, CDK5R1 / RFU, ZRANB3 / Fold change vs veh, ZRANB3 / RFU, CUL4A / Fold change vs veh, CUL4A / RFU, CCNY / Fold change vs veh, CCNY / RFU, UFL1 / Fold change vs veh, UFL1 / RFU, COG3 / Fold change vs veh, COG3 / RFU, DIAPH2 / Fold change vs veh, DIAPH2 / RFU, SKA2 / Fold change vs veh, SKA2 / RFU, AFF3 / Fold change vs veh, AFF3 / RFU, LMF1 / Fold change vs veh, LMF1 / RFU, IPO11 / Fold change vs veh, IPO11 / RFU, DFFB / Fold change vs veh, DFFB / RFU, FOXP1 / Fold change vs veh, FOXP1 / RFU, CARD8 / Fold change vs veh, CARD8 / RFU, STRN3 / Fold change vs veh, STRN3 / RFU, ADK / Fold change vs veh, ADK / RFU, RASSF2 / Fold change vs veh, RASSF2 / RFU, WIPF1 / Fold change vs veh, WIPF1 / RFU, LARP1B / Fold change vs veh, LARP1B / RFU, RASA1 / Fold change vs veh, RASA1 / RFU, RB1 / Fold change vs veh, RB1 / RFU, PPFIA1 / Fold change vs veh, PPFIA1 / RFU, MAT2A / Fold change vs veh, MAT2A / RFU, CCT5 / Fold change vs veh, CCT5 / RFU, WDR92 / Fold change vs veh, WDR92 / RFU, CUX1 / Fold change vs veh, CUX1 / RFU, TTC7A / Fold change vs veh, TTC7A / RFU, TMEM135 / Fold change vs veh, TMEM135 / RFU, DEPTOR / Fold change vs veh, DEPTOR / RFU, CPM / Fold change vs veh, CPM / RFU, DNAJB6 / Fold change vs veh, DNAJB6 / RFU, CACNA2D3 / Fold change vs veh, CACNA2D3 / RFU, DTX4 / Fold change vs veh, DTX4 / RFU, TFCP2 / Fold change vs veh, TFCP2 / RFU, GMCL1 /// GMCL1P1 / Fold change vs veh, GMCL1 /// GMCL1P1 / RFU, AEBP2 / Fold change vs veh, AEBP2 / RFU, SNHG1 /// SNORD22 /// SNORD25 /// SNORD26 /// SNORD27 /// SNORD28 /// SNORD29 /// SNORD31 / Fold change vs veh, SNHG1 /// SNORD22 /// SNORD25 /// SNORD26 /// SNORD27 /// SNORD28 /// SNORD29 /// SNORD31 / Fold change (Aza/veh), C12orf56 (ProbeSet 11735607_a_at) / Fold change (ACY-1035/veh), C12orf56 (ProbeSet 11735607_a_at) / Fold change (Aza/veh), FGFR1OP (ProbeSet 11751329_s_at) / Fold change (ACY-1035/veh), FGFR1OP (ProbeSet 11751329_s_at) / Fold change (Aza/veh), VPS36 (ProbeSet 11739960_a_at) / Fold change (ACY-1035/veh), VPS36 (ProbeSet 11739960_a_at) / RFU SYPL1 (11715823_x_at) / Fold change /veh SYPL1 (11715823_x_at) / RFU IGFBP7 (11715501_s_at) / Fold change /veh IGFBP7 (11715501_s_at) / RFU REEP3 (11722064_at) / Fold change /veh REEP3 (11722064_at) / RFU IGLL1 (11728026_x_at) / Fold change /veh IGLL1 (11728026_x_at): dose or concentration left out as unconfirmed
Settings: MV-4-11 cells, 48 hours

Nc1ccc(-c2cccs2)cc1NC(=O)c1ccc2c(c1)cc(C1CC1)n2CCN1CCOCC1 [ACY-1035]
Fold change /veh SYPL1 (11715823_x_at): 0.54
